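Growth conditions: 96-well plates. Treatment: test compound, 48 hours, 5 concentrations. Analysis: linear interpolation between bracketing concentrations; unreached endpoints set to highest concentration. TGI denotes the concentration required for complete inhibition of growth.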
How the values were obtained:
Experiment in all cases: NCI tumour cell line growth inhibition, 48 h
A498 renal = test system: A498 renal
ACHN renal = test system: ACHN renal
DU-145 prostate = test system: DU-145 prostate
EKVX NSCLC = test system: EKVX NSCLC
MALME-3M melanoma = test system: MALME-3M melanoma
MDA-MB-435 = test system: MDA-MB-435
NCI-H23 lung = test system: NCI-H23 lung
NCI/ADR-RES ovarian = test system: NCI/ADR-RES ovarian
RPMI-8226 leukemia = test system: RPMI-8226 leukemia
SK-MEL-2 melanoma = test system: SK-MEL-2 melanoma
SK-MEL-5 melanoma = test system: SK-MEL-5 melanoma
SN12C renal = test system: SN12C renal
SW-620 colon = test system: SW-620 colon
UACC-62 melanoma = test system: UACC-62 melanoma
SNB-75 CNS = test system: SNB-75 CNS

Row | SMILES | TGI (A498 renal) | TGI (ACHN renal) | TGI (DU-145 prostate) | TGI (EKVX NSCLC) | TGI (MALME-3M melanoma) | TGI (MDA-MB-435) | TGI (NCI-H23 lung) | TGI (NCI/ADR-RES ovarian) | TGI (RPMI-8226 leukemia) | TGI (SK-MEL-2 melanoma) | TGI (SK-MEL-5 melanoma) | TGI (SN12C renal) | TGI (SW-620 colon) | TGI (UACC-62 melanoma) | TGI (SNB-75 CNS)
1 | CCc1n[nH]c(=O)n1/N=C/c1ccc(C)cc1 | > 100 µM | > 100 µM | > 100 µM | > 100 µM | > 100 µM | > 100 µM | > 100 µM | > 100 µM | > 100 µM | > 100 µM | > 100 µM | > 100 µM | > 100 µM | > 100 µM | –
2 | CC(=O)Nc1cc2c3c(c1)CCCN3CCC2 | > 100 µM | > 100 µM | > 100 µM | > 100 µM | > 100 µM | > 100 µM | > 100 µM | > 100 µM | > 100 µM | > 100 µM | > 100 µM | – | > 100 µM | > 100 µM | > 100 µM
3 | COc1cccc2c1OC(c1ccc(C#N)cc1)C([N+](=O)[O-])=C2 (stereo unspecified) | 4.03 µM | 3.49 µM | 9.39 µM | 18.9 µM | 2.97 µM | 2.72 µM | 3.25 µM | > 100 µM | – | 4.38 µM | 2.87 µM | 4.37 µM | 2.8 µM | 3.33 µM | 7.32 µM
4 | CC(NC(=O)c1ccccc1)NC(=O)C(C)C(=O)Nc1ccccc1 (stereo unspecified) | – | > 100 µM | > 100 µM | > 100 µM | > 100 µM | > 100 µM | > 100 µM | > 100 µM | > 100 µM | > 100 µM | > 100 µM | > 100 µM | > 100 µM | > 100 µM | > 100 µM
5 | COc1ccc2cc(C(=O)O)ccc2c1OC | > 100 µM | > 100 µM | > 100 µM | – | > 100 µM | > 100 µM | > 100 µM | > 100 µM | – | > 100 µM | > 100 µM | > 100 µM | > 100 µM | > 100 µM | > 100 µM
6 | c1ccc([P+](Cc2ccccc2C[P+](c2ccccc2)(c2ccccc2)c2ccccc2)(c2ccccc2)c2ccccc2)cc1 | > 100 µM | > 100 µM | > 100 µM | – | > 100 µM | > 100 µM | > 100 µM | > 100 µM | > 100 µM | > 100 µM | > 100 µM | > 100 µM | > 100 µM | > 100 µM | > 100 µM
7 | C=CCSC1=N/C(=C\c2cccs2)C(=O)N1CC=C | 95.3 µM | > 100 µM | > 100 µM | 71.4 µM | > 100 µM | > 100 µM | > 100 µM | > 100 µM | 91.3 µM | > 100 µM | > 100 µM | > 100 µM | > 100 µM | > 100 µM | –
8 | CN(C)CCN=C1Nc2ccccc2C(=S)N2CSCC12 (stereo unspecified) | > 100 µM | > 100 µM | > 100 µM | > 100 µM | > 100 µM | > 100 µM | – | > 100 µM | > 100 µM | > 100 µM | > 100 µM | > 100 µM | > 100 µM | > 100 µM | > 100 µM
9 | CC1=C/C(=N\O)C(C(O)(C(F)(F)F)C(F)(F)F)C(C)(C)C1 (stereo unspecified) | > 10 µM | > 10 µM | > 10 µM | > 10 µM | > 10 µM | > 10 µM | > 10 µM | > 10 µM | – | – | > 10 µM | > 10 µM | > 10 µM | > 10 µM | > 10 µM
10 | Cc1ccc(Nc2c(C#N)[n+]([O-])c3cc(Cl)ccc3[n+]2[O-])cc1 | > 100 µM | > 100 µM | > 100 µM | > 100 µM | > 100 µM | > 100 µM | > 100 µM | > 100 µM | > 100 µM | > 100 µM | – | > 100 µM | > 100 µM | > 100 µM | > 100 µM
11 | CC(SC(=S)N1CCOCC1)C(=O)Nc1nnc(-c2ccccc2)o1 (stereo unspecified) | > 100 µM | > 100 µM | > 100 µM | > 100 µM | > 100 µM | > 100 µM | > 100 µM | 96.4 µM | > 100 µM | > 100 µM | > 100 µM | > 100 µM | > 100 µM | – | > 100 µM
12 | CCOC(=O)[C@@]12C3C=CC(CC3)[C@]1(C(=O)c1ccccc1)C(=O)C(=O)N2c1ccccc1 (stereo partly specified) | > 100 µM | > 100 µM | > 100 µM | – | > 100 µM | > 100 µM | > 100 µM | > 100 µM | > 100 µM | > 100 µM | > 100 µM | > 100 µM | > 100 µM | > 100 µM | –
13 | O=C(O)CCc1ccc2c(c1)C(=O)CC2 | > 100 µM | > 100 µM | > 100 µM | > 100 µM | > 100 µM | > 100 µM | > 100 µM | > 100 µM | > 100 µM | > 100 µM | > 100 µM | > 100 µM | > 100 µM | > 100 µM | –
14 | CC1Oc2c(c(=O)oc3ccccc23)[C@@]1(C)CC1C[C@H](C)C(=O)O1 (stereo partly specified) | > 100 µM | 65.8 µM | > 100 µM | > 100 µM | 53.4 µM | 47.8 µM | 40.9 µM | > 100 µM | 77.4 µM | > 100 µM | > 100 µM | – | > 100 µM | 42.4 µM | > 100 µM
15 | O=C(Nc1ccccc1)N(C1=NCC(CI)S1)c1ccc(F)cc1F (stereo unspecified) | – | > 100 µM | > 100 µM | > 100 µM | > 100 µM | > 100 µM | > 100 µM | > 100 µM | > 100 µM | > 100 µM | > 100 µM | > 100 µM | > 100 µM | > 100 µM | > 100 µM
16 | C=C[C@@H]1C[C@]2(C(=O)OC)Cc3nc4ccccc4nc3CC(C(=O)OC)=C2O1 | > 100 µM | > 100 µM | > 100 µM | > 100 µM | > 100 µM | > 100 µM | > 100 µM | > 100 µM | > 100 µM | > 100 µM | > 100 µM | > 100 µM | > 100 µM | > 100 µM | –

Source: PubChem BioAssay (NCI)
